Publication PMC6213047, “Design of Antibacterial Agents: Alkyl Dihydroxybenzoates against Xanthomonas citri subsp. citri” (International Journal of Molecular Sciences, 2018)
In brackets after ≈: the same amount, converted by molar mass. Read-outs that look alike come from different tables or passages of the source.

Experiments:
[1] = test system: HaCaT (human keratinocyte cell line); assay: Cytotoxicity MTT assay, HaCaT; assay type: cell-based; conditions: MTT; for IC50: 24 h treatment, read-out: IC50 HaCaT
Procedure: (§1) This test is based on the reduction of 3-(4,5-dimethyl-2-thiazolyl)-2,5-diphenyl-2-tetrazole bromide by viable cells, with formation of violet insoluble formazan crystals. Five cell lines were used in order to evaluate the cytotoxic effect of the compounds as a whole.
(§2) The cytotoxicity of compounds 4, 16, 28 and copper oxychloride was determined by MTT assay. The cell lines used were HaCaT (human keratinocyte cell line—CLS 300493), Huh-7.5 (human hepatoma cell line—ATCC® PTA-8561), MRC-5 (human lung fibroblast cell line—ATCC CCL-171), VERO (monkey kidney epithelial cell line—ATCC® CCL81) and ACHN (human renal adenocarcinoma cell line—ATCC® CRL1611). The cells were cultured in appropriate medium recommended by the American Type Culture Collection.
(§3) The assay was performed with the concentration of 10^4 cells for both cell lines, distributed in 96-well plates and incubated at 37 °C in a 5% CO2 controlled atmosphere oven for 24 h. After the incubation period, the cells were treated with the compounds with a range of 1.56–200 μmol L^−1 and incubated for 24 h. The supernatant was removed, then 100 μL of 3-(4,5-dimethyl-2-thiazolyl)-2,5-diphenyl-2H-tetrazolium (MTT) salt at 1 mg mL^−1 diluted in DMEM medium (Gibco Life Technologies, Gaithersburg, MD, USA) was added and incubated for 30 min. Subsequently, the MTT was removed, then 100 μL of DMSO under agitation for 5 min at 60 rpm was added. The plates were read at 570 nm in a FLUOstar Omega/BMG LABTECH plate reader, Offenburg, BW, DE. We carried out the experiments in triplicate and three independent events for statistical analysis (GraphPad Software, San Diego, CA, USA). The MTT assay is based on the tetrazolium salt (yellow-colored) reduction to formazan (purple-colored) by metabolically active cells.

[2] = test system: VERO (monkey kidney epithelial cell line); assay: Cytotoxicity MTT assay, VERO; assay type: cell-based; conditions: MTT; for IC50: 24 h treatment, read-out: IC50 VERO
Procedure: as §1, §2, §3

[3] = test system: X. citri subsp. citri strain 306 (IBSBF 1594); assay: MIC by Resazurin Microtiter Assay (REMA); assay type: cell-based, Xanthomonas citri subsp. citri; conditions: REMA, NYG medium, 29 °C, 12 h
Procedure: The antibacterial potential of carboxylic acids and their esters were compared to copper oxychloride (a commercial active often used to combat citrus canker). Minimal inhibitory concentration (MIC) values were determined by REMA assay, which measures cellular respiratory activity.
The antibacterial activity of alkyl dihydroxybenzoates and the determination of minimum inhibition concentration (MIC) were performed by the fluorimetric method Resazurin Microtiter Assay (REMA) with some modifications. An overnight culture of X. citri subsp. citri strain 306 (IBSBF 1594) was grown in 20 mL in Nitrogen Yeast Glycerol (NYG) at 29 °C in constant agitation of 180–200 rpm. After 12 h, the Xcc inoculum was dispersed in NYG medium and distributed into a 96 well microtiter plate to a final volume of 100 μL per well (10^5 CFU per well). Stock solutions of tested compounds at 10 mg mL^−1 were prepared in dimethyl sulfoxide (DMSO) and dispersed in NYG medium to obtain 1% DMSO and the final compound concentration range of 0.78–100 μg mL^−1. The negative control was constituted of 100 μL culture medium. In addition, the copper oxychloride was tested as a comparison to alkyl dihydroxybenzoates and kanamycin (20 μg mL^−1), which was used as a control antibiotic. The plate was subsequently incubated at 29 °C for 12 h, and 15 μg mL^−1 freshly prepared resazurin solution in water was added to each well, and the plate was incubated for 2 h. The fluorescence was determined on a Synergy H1 (BioTek, Winooski, VT, USA) microplate reader using the excitation and emission filters at wavelengths of 530 and 590 nm respectively. After the REMA assay, the minimum bactericidal concentration (CBM) assay was performed using a 96-pin stainless steel plate replicator, accurately transferring the wells from the REMA plate to Petri dishes Petri dishes were incubated in oven B.O.D. at 29 °C for 24 to 48 h. The experiments were performed in triplicate.

[4] = test system: Huh-7.5 (human hepatoma cell line); assay: Cytotoxicity MTT assay, Huh-7.5; assay type: cell-based; conditions: MTT; for IC50: 24 h treatment, read-out: IC50 Huh-7,5
Procedure: as §1, §2, §3

[5] = test system: MRC-5 (human lung fibroblast cell line); assay: Cytotoxicity MTT assay, MRC-5; assay type: cell-based; conditions: MTT; for IC50: 24 h treatment, read-out: IC50 MRC-5
Procedure: as §1, §2, §3

[6] = test system: ACHN (human renal adenocarcinoma cell line); assay: Cytotoxicity MTT assay, ACHN; assay type: cell-based; conditions: MTT; for IC50: 24 h treatment, read-out: IC50 ACHN
Procedure: as §1, §2, §3

[7] = test system: Xanthomonas citri subsp. citri; assay: Growth curve of Xcc (OD 600 nm); assay type: cell-based; conditions: MIC and ½ MIC, 72 h
Procedure: According to the growth curves of the positive control (PC) and vehicle control (DMSO), it was observed that Xcc reaches the maximum growth phase in a period of 15 h. […] The early growth inhibition (lag phase), which happens in the first hours of contact (period of the first cellular divisions) can be a dynamic process. […] This can be explained because the compounds have bacteriostatic action; that is, as the time passes, the cells become able to recover and restart doubling. Another important finding is that the lag phase consists in the cell adaptation to the new medium conditions and the bacterial population is smaller in relation to the exponential phase facilitates the action of the compounds in the first hours (Figure 1).
An isolated colony of Xanthomonas citri subsp. citri was inoculated in NYG medium for 12 h at 29 °C. After this, the optical density (OD 600 nm) was measured and adjusted to ~0.1. […] Optical density reading was measured on a Synergy H1-BioTek plate reader every 30 min for 72 h. The growth curves were plotted with GraphPad Prism software. At the same time, the degradation assay was performed, solubilizing the compounds in DMSO, which were later incorporated in NYG medium. Later, we scanned the compounds to measure the absorbance values from 210 to 700 nm, and the maximum lambda value of each compound was selected after scanning. After that, punctual readings were carried out every 30 min for 72 h.

[8] = test system: X. citri subsp. citri strain 306 (IBSBF 1594); conditions: anti-Xcc, previous study ref 25; cited from earlier work
[9] = test system: Xcc cells membrane integrity; assay: Cellular membrane permeability of Xcc, Live/Dead BacLight kit; assay type: cell-based, Xanthomonas citri subsp. citri; conditions: compounds at ¼ MIC, 15 min; nisin as positive control
Procedure: Membrane integrity was measured by using the commercial assay Live/Dead BacLight® bacterial viability kit (Invitrogen, Carlsbad, CA, USA). We observed cells with intact membrane in fluorescent blue (SYTO 9) and cells with disturbance or affected membrane integrity in red or pink (propidium iodide). The data analyses were plotted as the percentage of cells permeated by propidium iodide (Figure 2).
Phase contrast microscopy was used to observe changes in cell shape and signs of cell division alteration using an objective lens with a magnification of 100×. To evaluate the Xcc cells’ membrane integrity, the BacLight® kit was used. Mixtures of SYTO 9 dyes and propidium iodide (PI). SYTO 9 (blue) can stain nucleic acids in general—with intact or damaged membranes. On the other hand, PI (red) penetrates only the bacteria with damaged membranes, causing overlap in the fluorescence of SYTO 9. Therefore, using a mixture of the dyes, the bacteria with disturbed cell membranes are stained in fluorescent red and the intact cell membranes are stained in fluorescent blue. […] Cellular immobilization was performed on slides containing 1% agarose gel in 0.85% saline buffer. The slides were prepared with 1.0 mL of the agarose solution, which was dispersed in optical microscopy slides and on each slide another slide was placed so that the gel continued like a thin film and was of homogeneous height. The slides were dried at room temperature for approximately 20 min and opened at the time of use, when 10 μL of the cell suspension was deposited in the center and covered with the cover slip. The cells were visualized using the Olympus BX-61 optical microscope equipped with OrcaFlash 2.8 monochrome camera (Hamamatsu, Shizuoka, Japan). Cell Sensation software v11 (Olympus) was used to document and analyze the images.

[10] = 24 h, unit as in text for copper oxychloride

NC[C@H]1O[C@H](O[C@H]2[C@H](O)[C@@H](O[C@H]3O[C@H](CO)[C@@H](O)[C@H](N)[C@H]3O)[C@H](N)C[C@@H]2N)[C@H](O)[C@@H](O)[C@@H]1O [Kanamycin, kanamycin, reference compound]
IC50 [1]: > 200 µM | IC50 [2]: > 200 µM | MIC [3]: 19.9 µg/mL | MIC ([3]; read-out: MIC in μM): 40 µM | IC50 [4]: > 200 µM | IC50 [5]: > 200 µM | IC50 [6]: > 200 µM

[Cl-].[Cu+2].[Cu+2].[OH-].[OH-].[OH-] [copper oxychloride, reference compound]
IC50 HaCaT [1, 10]: above 200 μg mL^−1 | IC50 [1]: > 200 µM | IC50 VERO [2, 10]: above 200 μg mL^−1 | IC50 [2]: > 200 µM | MIC [3]: 43.1 µg/mL | IC50 Huh-7.5 [4, 10]: above 200 μg mL^−1 | IC50 [4]: > 200 µM | IC50 MRC-5 [5, 10]: above 200 μg mL^−1 | IC50 [5]: > 200 µM | IC50 ACHN [6, 10]: above 200 μg mL^−1 | IC50 [6]: > 200 µM | effect on Xcc growth curve [7]: inactive

CCCCCCCOC(=O)c1cc(O)c(O)c(O)c1 [heptyl gallate]
MIC [8]: 116 µM (≈ 31.1 µg/mL)

nisin [reference compound]
percentage of cells permeated by propidium iodide [9]: 79.47%
